This note sets out measurements from patent US11225460B2, “Pyrrolidineamide derivatives and uses thereof” (SUNSHINE LAKE PHARMA CO., LTD., priority 2019, dated 2022).

The target of the test is T1, potassium channel of hERG (Homo sapiens, UniProt Q12809).
T1 construct: expressed in transfected cells; host or cells: HEK-293 cells
Briefly: Inhibitory effect on potassium channel of hERG by electrophysiological manual patch clamp. The following applies: HEK-293 cells overexpressed potassium channel of hERG, 0.37-30.00 μM, read-out: IC50 acting on hERG potassium channel. The test is classed as cell-based. The procedure:
The cell line was derived from HEK-293 cells overexpressed potassium channel of hERG.
The cells were cultured in a5% CO2 incubator at 37° C. When the cell density reached 80% of the culture dish, the cells were pre-cleaned with phosphate buffer (PBS), and then digested with trypsin/EDTA for 2-3 minutes. and then the cell culture medium was added to stop digestion. The cells were blew with a pipette gently and transferred to a centrifugal tube. The cells were centrifuged for 3 minutes at 1,000 rpm. The supernatant was poured out. The cell culture medium was added and blew gently to mix the cells well. Then the cells were transferred to a culture dish for subculture, or the cells were dropped onto a circular slide and placed in a culture dish until cell adherence for experiment. […]
hERG potassium channel current was recorded by using the whole cell recording mode. Firstly, the extracellular fluid (about 2 milliliters per minute) was perfused and recorded continuously, and waiting the current stabilization (Run-Down was less than 5% in 5 minutes). […] Then the extracellular fluid containing the tested compounds was perfused (the concentration of the tested compounds were 0.37 μM, 1.10 μM, 3.30 μM, 10.00 μM and 30.00 μM, respectively) and current value was recorded continuously until the inhibitory effect of the tested compounds on hERG current reached a stable state. […]

T1 sequence (Q12809 whole entry): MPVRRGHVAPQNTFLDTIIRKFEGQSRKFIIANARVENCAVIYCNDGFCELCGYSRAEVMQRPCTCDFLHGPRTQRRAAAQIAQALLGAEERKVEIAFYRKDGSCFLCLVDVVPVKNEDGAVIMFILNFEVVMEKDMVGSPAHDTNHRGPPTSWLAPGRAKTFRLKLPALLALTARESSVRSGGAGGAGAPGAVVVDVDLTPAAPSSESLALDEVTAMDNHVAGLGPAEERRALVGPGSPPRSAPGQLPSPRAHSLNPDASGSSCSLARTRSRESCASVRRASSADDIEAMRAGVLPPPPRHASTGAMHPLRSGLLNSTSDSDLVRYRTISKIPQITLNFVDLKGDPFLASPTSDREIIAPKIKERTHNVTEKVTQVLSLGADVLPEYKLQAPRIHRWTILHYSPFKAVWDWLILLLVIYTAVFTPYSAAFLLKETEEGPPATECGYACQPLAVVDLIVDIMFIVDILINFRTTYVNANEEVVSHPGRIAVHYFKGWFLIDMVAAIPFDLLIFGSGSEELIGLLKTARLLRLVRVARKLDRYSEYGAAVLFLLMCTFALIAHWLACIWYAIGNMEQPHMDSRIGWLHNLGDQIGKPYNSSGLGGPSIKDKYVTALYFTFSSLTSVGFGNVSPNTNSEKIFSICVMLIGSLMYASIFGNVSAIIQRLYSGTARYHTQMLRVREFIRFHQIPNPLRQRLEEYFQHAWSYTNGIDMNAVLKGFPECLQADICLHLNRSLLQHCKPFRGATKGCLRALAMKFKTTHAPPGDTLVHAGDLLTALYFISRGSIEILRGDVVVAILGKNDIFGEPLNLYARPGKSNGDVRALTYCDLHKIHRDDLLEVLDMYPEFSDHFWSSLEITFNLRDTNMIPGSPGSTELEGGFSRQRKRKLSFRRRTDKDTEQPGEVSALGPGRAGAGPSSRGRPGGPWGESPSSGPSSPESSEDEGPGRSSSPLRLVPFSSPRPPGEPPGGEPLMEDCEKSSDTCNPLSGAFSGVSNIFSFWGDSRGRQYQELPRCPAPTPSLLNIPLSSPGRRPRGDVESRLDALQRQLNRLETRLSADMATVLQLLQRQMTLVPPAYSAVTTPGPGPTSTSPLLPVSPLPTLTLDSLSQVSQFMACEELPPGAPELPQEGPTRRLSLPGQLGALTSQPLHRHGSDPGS

By IC50 is commonly meant the concentration that inhibits the measured activity by half. Regarding `NC(=O)[C@@H]1C[C@H](F)CN1Cc1ccc(OCc2cccc(F)c2)cc1` [Example 1, (2S,4S)-4-fluoro-1-(4-(3-fluorobenzyloxy)benzyl)pyrrolidine-2-formamide], the IC50 was over 30 µM.
